Measurements from publication PMC11279404, “Discovery of 1H-benzo[d]imidazole-(halogenated)Benzylidenebenzohydrazide Hybrids as Potential Multi-Kinase Inhibitors” (Pharmaceuticals, 2024).

Columns and labels:
[1] = system: HCT-116 (human colon cancer cell line); experiment: MTT in vitro cytotoxicity, HCT-116; assay type: cell-based; conditions: for IC50: Homo sapiens, HCT-116, MTT, mean ± SD of triplicate; for SI (Selectivity Index) HCT-116: IC50 of WI-38 / IC50 of HCT-116
[2] = system: HepG2 (hepatocellular carcinoma cell line); experiment: MTT in vitro cytotoxicity, HepG2; assay type: cell-based, human; conditions: for IC50: Homo sapiens, HepG2, MTT, mean ± SD of triplicate; for SI (Selectivity Index) HepG2: IC50 of WI-38 / IC50 of HepG2
[3] = system: MCF-7 (mammary gland breast cancer cell line); experiment: MTT in vitro cytotoxicity, MCF-7; assay type: cell-based, human; conditions: for IC50: Homo sapiens, MCF7, MTT, mean ± SD of triplicate; for SI (Selectivity Index) MCF-7: IC50 of WI-38 / IC50 of MCF-7
[4] = MTT in vitro cytotoxicity, normal WI-38; assay type: cell-based; conditions: human, WI-38 normal lung fibroblast cells, normal cell line, mean ± SD of triplicate
[5] = system: cancer cell lines (HCT-116, HepG2, MCF-7); experiment: MTT in vitro cytotoxicity, summary across the cancer cell line panel; assay type: cell-based; conditions: Homo sapiens; summary over HCT-116, HepG2, MCF-7; read-out: IC50 values across the tested cancer cell lines
Description: The cytotoxic activities of compounds 6a-l were assessed using a standard MTT method, which was performed across three different cancer cell line models, namely human colon cancer (HCT-116), hepatocellular carcinoma (HepG2), mammary gland cancer (MCF-7), and normal (WI-38) cell lines. […] […]. Substitution at the 4-position, as in the case of compounds 6d, 6g, and 6j, also seems beneficial, with fluoro (6j) showing the best results. […]. Overall, the cytotoxicity data provide valuable insights into the structure–activity relationships of the synthesized compounds and can guide further optimization efforts to develop potential anticancer agents with improved potency and selectivity.
. The SI values represent the ratio of the IC50 values for the normal WI-38 cell line compared with the respective cancer cell lines, with higher SI values indicating greater selectivity for the cancer cells over normal cells. […]. The cytotoxic potential of compounds 6a-l was evaluated against a panel of cancer cell lines, including HCT-116, HepG2, and MCF-7, as well as a normal cell line, WI-38, using the reported methodology. The cell lines utilized in this study were obtained from the American Type Culture Collection (ATCC) through the Holding Company for Biological Products and Vaccines (VACSERA) in Cairo, Egypt. These included: 1. A human colon cancer cell line (HCT-116); 2. Hepatocellular carcinoma (HepG2)—a liver cancer cell line; 3. Mammary gland breast cancer (MCF-7); and 4. A human lung fibroblast (WI-38)—a normal cell line.

[6] = target: VEGFR2 (Homo sapiens, UniProt P35968); experiment: In vitro protein kinase inhibition, VEGFR2; assay type: biochemical; conditions: mean ± SD of triplicate
Text: […]. […] […].

[7] = target: HDAC1 (Homo sapiens, UniProt Q13547); experiment: In vitro enzyme inhibition, HDAC1; assay type: biochemical; conditions: mean ± SD of triplicate; read-out: In Vitro Protein Kinase Inhibition IC50 HDAC1
[8] = target: mTOR (Homo sapiens, UniProt P42345); experiment: In vitro enzyme inhibition, mTOR
[9] = target: EGFR (Homo sapiens, UniProt P00533); experiment: In vitro protein kinase inhibition, EGFR
[10] = target: Her2 (Homo sapiens, UniProt P04626); experiment: In vitro protein kinase inhibition, Her2
[11] = target: CDK2 (Homo sapiens, UniProt P24941); experiment: In vitro protein kinase inhibition, CDK2
[12] = target: T1, AURKC (Homo sapiens, UniProt Q9UQB9); experiment: In vitro protein kinase inhibition, AURKC
T1 sequence (Q9UQB9 1-309): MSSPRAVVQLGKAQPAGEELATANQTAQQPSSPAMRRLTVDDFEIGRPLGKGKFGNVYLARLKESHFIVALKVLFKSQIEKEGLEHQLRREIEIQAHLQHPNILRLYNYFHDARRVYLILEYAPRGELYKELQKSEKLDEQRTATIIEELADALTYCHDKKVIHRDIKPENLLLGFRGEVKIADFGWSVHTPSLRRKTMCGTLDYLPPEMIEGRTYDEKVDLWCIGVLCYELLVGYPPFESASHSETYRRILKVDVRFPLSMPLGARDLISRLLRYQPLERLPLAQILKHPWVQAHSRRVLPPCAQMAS

[13] = system: caspase-3; experiment: Apoptotic protein level by ELISA, caspase-3; assay type: cell-based, human; conditions: HepG2 cells
Description: (§1) To further elucidate the mechanism by which compound 6i induces cell death, the expression levels of key apoptotic proteins were assessed in the HepG2 cell line. […] Specifically, the levels of the pro-apoptotic proteins caspase-3 and Bax were markedly higher in the compound 6i-treated group compared with the control. […] Additional studies are warranted to elucidate the detailed molecular mechanisms underlying the apoptosis-inducing effects of compound 6i and to assess its therapeutic potential in relevant in vivo models.
(§2) Apoptotic protein levels for compound 6i were determined using an ELISA technique for caspase-3, BAX, and Bcl-2, applying a previously reported method.

[14] = system: Bax; experiment: Apoptotic protein level by ELISA, Bax; assay type: cell-based, human; conditions: HepG2 cells
Description: as §1, §2

[15] = system: Bcl-2; experiment: Apoptotic protein level by ELISA, Bcl-2; assay type: cell-based, human; conditions: HepG2 cells, ELISA; control 15.668 ± 0.53; mean ± SD of triplicate

Chain of EGFR (P00533 25-1210): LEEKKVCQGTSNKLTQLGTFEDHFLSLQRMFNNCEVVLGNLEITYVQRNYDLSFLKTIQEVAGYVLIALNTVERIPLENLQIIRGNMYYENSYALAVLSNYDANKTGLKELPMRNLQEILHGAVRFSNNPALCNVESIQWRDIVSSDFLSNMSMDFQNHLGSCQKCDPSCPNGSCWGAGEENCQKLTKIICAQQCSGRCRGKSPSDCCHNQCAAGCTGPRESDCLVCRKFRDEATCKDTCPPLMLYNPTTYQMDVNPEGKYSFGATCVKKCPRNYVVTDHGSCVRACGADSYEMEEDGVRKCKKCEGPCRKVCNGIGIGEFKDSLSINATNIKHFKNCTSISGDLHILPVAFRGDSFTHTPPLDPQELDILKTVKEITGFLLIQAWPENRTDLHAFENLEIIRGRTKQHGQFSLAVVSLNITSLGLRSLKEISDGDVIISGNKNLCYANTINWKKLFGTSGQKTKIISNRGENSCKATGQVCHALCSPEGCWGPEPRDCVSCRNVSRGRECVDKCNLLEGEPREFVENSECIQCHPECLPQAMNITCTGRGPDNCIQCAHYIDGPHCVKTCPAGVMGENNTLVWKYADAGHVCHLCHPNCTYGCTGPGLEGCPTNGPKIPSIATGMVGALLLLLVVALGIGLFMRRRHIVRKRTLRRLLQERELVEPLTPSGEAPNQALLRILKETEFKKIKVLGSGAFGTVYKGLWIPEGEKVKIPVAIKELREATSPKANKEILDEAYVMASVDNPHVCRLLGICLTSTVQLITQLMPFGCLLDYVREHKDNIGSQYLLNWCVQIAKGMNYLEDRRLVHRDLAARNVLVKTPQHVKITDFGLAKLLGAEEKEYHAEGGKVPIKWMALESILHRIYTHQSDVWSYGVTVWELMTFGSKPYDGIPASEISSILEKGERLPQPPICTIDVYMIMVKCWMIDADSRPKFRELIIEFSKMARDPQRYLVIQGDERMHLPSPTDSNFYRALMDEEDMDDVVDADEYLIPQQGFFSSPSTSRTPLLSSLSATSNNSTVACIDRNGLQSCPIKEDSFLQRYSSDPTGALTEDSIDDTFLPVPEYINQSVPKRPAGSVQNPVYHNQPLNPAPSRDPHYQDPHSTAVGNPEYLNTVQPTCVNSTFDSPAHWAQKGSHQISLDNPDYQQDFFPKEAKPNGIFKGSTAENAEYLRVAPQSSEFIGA
Chain of HDAC1 (Q13547 whole entry): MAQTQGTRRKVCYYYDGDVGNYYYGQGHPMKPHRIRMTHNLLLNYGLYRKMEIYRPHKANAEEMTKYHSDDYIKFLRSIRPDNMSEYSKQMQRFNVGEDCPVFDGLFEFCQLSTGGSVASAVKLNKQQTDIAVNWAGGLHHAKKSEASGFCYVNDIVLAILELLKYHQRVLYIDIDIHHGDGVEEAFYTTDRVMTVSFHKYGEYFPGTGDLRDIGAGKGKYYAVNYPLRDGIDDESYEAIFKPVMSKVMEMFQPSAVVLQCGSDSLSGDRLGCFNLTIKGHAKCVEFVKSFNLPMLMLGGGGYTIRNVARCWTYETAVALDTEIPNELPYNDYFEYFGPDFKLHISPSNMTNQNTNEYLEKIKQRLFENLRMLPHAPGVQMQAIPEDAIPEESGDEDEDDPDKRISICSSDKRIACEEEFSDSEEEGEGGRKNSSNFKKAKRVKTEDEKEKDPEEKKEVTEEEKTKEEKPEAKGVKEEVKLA
Chain of Her2 (P04626 23-1255): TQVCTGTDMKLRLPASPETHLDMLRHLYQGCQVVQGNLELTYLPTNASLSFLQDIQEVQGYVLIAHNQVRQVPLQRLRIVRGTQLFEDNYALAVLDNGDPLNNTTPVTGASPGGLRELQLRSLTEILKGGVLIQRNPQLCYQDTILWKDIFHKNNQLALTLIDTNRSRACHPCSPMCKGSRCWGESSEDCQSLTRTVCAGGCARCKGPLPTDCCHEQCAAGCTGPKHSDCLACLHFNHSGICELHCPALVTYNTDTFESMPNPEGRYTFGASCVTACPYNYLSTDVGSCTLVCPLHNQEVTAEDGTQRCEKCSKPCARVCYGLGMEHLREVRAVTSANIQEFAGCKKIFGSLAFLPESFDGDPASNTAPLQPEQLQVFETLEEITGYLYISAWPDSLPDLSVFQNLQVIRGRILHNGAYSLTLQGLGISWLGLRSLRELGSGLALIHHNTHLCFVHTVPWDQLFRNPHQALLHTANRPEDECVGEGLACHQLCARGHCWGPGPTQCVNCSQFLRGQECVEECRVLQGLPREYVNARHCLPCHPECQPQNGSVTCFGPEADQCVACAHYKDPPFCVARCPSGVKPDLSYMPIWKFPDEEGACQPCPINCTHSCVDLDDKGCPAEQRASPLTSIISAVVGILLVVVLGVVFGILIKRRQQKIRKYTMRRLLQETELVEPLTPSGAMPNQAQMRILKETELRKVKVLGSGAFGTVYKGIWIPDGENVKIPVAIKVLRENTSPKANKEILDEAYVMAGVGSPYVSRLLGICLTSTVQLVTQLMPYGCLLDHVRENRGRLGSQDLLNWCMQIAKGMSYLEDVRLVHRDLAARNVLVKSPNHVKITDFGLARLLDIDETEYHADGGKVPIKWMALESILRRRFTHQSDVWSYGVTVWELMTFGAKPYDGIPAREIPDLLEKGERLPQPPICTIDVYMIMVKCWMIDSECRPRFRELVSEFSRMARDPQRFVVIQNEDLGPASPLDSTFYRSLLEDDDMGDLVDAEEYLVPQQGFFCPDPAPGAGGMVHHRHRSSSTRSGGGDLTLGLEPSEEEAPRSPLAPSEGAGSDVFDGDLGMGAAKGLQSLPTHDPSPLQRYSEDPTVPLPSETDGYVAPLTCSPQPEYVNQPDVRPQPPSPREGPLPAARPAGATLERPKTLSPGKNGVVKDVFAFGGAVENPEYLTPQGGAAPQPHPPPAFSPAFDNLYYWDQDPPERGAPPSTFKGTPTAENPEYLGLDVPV
Chain of VEGFR2 (P35968 20-1356): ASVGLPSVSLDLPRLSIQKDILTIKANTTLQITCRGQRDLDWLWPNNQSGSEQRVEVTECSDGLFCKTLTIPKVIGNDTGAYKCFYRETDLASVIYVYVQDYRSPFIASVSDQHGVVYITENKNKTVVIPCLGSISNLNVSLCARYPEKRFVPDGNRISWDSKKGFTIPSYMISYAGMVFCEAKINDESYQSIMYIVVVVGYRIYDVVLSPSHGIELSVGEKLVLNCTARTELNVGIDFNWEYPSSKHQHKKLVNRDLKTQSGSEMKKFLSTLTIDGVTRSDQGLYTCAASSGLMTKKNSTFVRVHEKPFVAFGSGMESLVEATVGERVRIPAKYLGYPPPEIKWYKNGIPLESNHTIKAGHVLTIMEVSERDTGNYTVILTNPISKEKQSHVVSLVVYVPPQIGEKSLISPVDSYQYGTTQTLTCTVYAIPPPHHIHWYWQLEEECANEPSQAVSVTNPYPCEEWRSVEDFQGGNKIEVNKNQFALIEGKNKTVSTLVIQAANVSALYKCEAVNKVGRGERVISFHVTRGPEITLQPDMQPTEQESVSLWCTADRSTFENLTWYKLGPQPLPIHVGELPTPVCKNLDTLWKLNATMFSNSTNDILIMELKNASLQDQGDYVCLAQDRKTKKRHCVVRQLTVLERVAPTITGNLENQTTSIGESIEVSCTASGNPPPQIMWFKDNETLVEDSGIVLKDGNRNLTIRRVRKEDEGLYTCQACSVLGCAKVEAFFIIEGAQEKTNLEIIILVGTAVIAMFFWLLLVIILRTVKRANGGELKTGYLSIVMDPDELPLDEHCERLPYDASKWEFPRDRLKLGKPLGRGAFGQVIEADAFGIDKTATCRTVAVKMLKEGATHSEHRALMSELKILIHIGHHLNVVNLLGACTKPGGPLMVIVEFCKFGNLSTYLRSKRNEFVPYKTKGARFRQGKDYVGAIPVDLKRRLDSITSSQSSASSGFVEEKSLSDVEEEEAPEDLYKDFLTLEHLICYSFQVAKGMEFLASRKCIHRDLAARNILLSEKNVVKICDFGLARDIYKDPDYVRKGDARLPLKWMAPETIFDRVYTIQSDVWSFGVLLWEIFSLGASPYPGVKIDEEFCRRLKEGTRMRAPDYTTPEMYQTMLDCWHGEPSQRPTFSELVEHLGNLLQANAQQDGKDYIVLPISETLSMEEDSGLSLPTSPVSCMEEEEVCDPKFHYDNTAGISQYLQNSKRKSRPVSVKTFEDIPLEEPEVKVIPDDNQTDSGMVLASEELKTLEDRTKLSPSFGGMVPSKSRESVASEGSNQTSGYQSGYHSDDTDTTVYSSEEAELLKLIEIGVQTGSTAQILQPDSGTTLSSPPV

SMILES | IC50 [1] [µM] | SI (Selectivity Index) HCT-116 [1] | IC50 [2] [µM] | SI (Selectivity Index) HepG2 [2] | IC50 [3] [µM] | SI (Selectivity Index) MCF-7 [3] | IC50 [4] [µM] | IC50 [5] [µM] | melting point [°C] | also measured
O=C(N/N=C/c1ccccc1)c1ccc(NCc2nc3ccccc3[nH]2)cc1 [6a, (E)-4-(((1H-benzo[d]imidazol-2-yl)methyl)amino)-N′-benzylidenebenzohydrazide] | 24.6 ± 1.9 | 2.95 | 31.8 ± 2.2 | 2.29 | 26.3 ± 1.9 | 2.76 | 72.6 ± 4 | > 20 | 278 | –
O=C(N/N=C/c1ccccc1Br)c1ccc(NCc2nc3ccccc3[nH]2)cc1 [6b, (E)-4-(((1H-benzo[d]imidazol-2-yl)methyl)amino)-N′-(2-bromobenzylidene)benzohydrazide] | 42.9 ± 2.5 | 1.96 | 26.2 ± 1.9 | 3.22 | 31.8 ± 2.1 | 2.64 | 84.2 ± 4.3 | > 20 | 284 | –
O=C(N/N=C/c1cccc(Br)c1)c1ccc(NCc2nc3ccccc3[nH]2)cc1 [6c, (E)-4-(((1H-benzo[d]imidazol-2-yl)methyl)amino)-N′-(3-bromobenzylidene)benzohydrazide] | 10.2 ± 0.8 | 4.72 | 8.9 ± 0.6 | 5.41 | 7.82 ± 0.6 | 6.16 | 48.2 ± 2.7 | 7.82 to 10.2 | 278 | IC50 [6]: 0.6045 ± 2.2e-05 µM; IC50 [7]: 2.263 ± 7.7e-05 µM; IC50 [8]: 1.461 ± 5e-05 µM; IC50 [9]: 0.1252 ± 4.1e-05 µM; IC50 [10]: 0.0556 ± 2.3e-05 µM; IC50 [11]: 0.938 ± 3.9e-05 µM; IC50 [12]: 0.0944 ± 3.6e-05 µM
O=C(N/N=C/c1ccc(Br)cc1)c1ccc(NCc2nc3ccccc3[nH]2)cc1 [6d, (E)-4-(((1H-benzo[d]imidazol-2-yl)methyl)amino)-N′-(4-bromobenzylidene)benzohydrazide] | 30.3 ± 2.1 | 1.79 | 17.8 ± 1.3 | 3.05 | 25.2 ± 1.8 | 2.16 | 54.3 ± 3.1 | < 30 | 287 | –
O=C(N/N=C/c1ccccc1Cl)c1ccc(NCc2nc3ccccc3[nH]2)cc1 [6e, (E)-4-(((1H-benzo[d]imidazol-2-yl)methyl)amino)-N′-(2-chlorobenzylidene)benzohydrazide] | 46.7 ± 2.7 | 1.33 | 28.8 ± 1.7 | 2.15 | 36.2 ± 2.3 | 1.71 | 61.9 ± 3.5 | > 20 | 289 | –
O=C(N/N=C/c1cccc(Cl)c1)c1ccc(NCc2nc3ccccc3[nH]2)cc1 [6f, (E)-4-(((1H-benzo[d]imidazol-2-yl)methyl)amino)-N′-(3-chlorobenzylidene)benzohydrazide] | 63.7 ± 3.5 | – | 34.8 ± 2.1 | – | 45.6 ± 2.5 | – | > 100 | > 20 | 271 | –
O=C(N/N=C/c1ccc(Cl)cc1)c1ccc(NCc2nc3ccccc3[nH]2)cc1 [6g, (E)-4-(((1H-benzo[d]imidazol-2-yl)methyl)amino)-N′-(4-chlorobenzylidene)benzohydrazide] | 35.3 ± 2.3 | 2.02 | 24.9 ± 1.7 | 2.86 | 22.5 ± 1.6 | 3.16 | 71.2 ± 3.5 | > 20 | 290 | –
O=C(N/N=C/c1ccccc1F)c1ccc(NCc2nc3ccccc3[nH]2)cc1 [6h, (E)-4-(((1H-benzo[d]imidazol-2-yl)methyl)amino)-N′-(2-fluorobenzylidene)benzohydrazide] | 21.5 ± 1.6 | 4.33 | 12.9 ± 1 | 7.19 | 16.3 ± 1.2 | 5.70 | 93 ± 4.6 | < 30 | 289 | IC50 [6]: 0.1945 ± 7e-06 µM; IC50 [7]: 0.1511 ± 5e-06 µM; IC50 [8]: 0.413 ± 1.4e-05 µM; IC50 [9]: 0.0732 ± 4e-06 µM; IC50 [10]: 0.0232 ± 1e-06 µM; IC50 [11]: 0.284 ± 1.2e-05 µM; IC50 [12]: 0.011 ± 4e-06 µM
O=C(N/N=C/c1ccc(F)cc1)c1ccc(NCc2nc3ccccc3[nH]2)cc1 [6j, (E)-4-(((1H-benzo[d]imidazol-2-yl)methyl)amino)-N′-(4-fluorobenzylidene)benzohydrazide] | 18.7 ± 1.4 | 2.08 | 14 ± 1.2 | 2.78 | 8.31 ± 0.7 | 4.70 | 39 ± 2.3 | < 30 | 291 | IC50 [6]: 0.3072 ± 1.1e-05 µM; IC50 [7]: 0.4733 ± 1.6e-05 µM; IC50 [8]: 1.305 ± 4.4e-05 µM; IC50 [9]: 0.1664 ± 8e-06 µM; IC50 [10]: 0.2047 ± 9e-06 µM; IC50 [11]: 1.448 ± 6.2e-05 µM; IC50 [12]: 0.5894 ± 2.2e-05 µM
O=C(N/N=C/c1ccc(Cl)cc1Cl)c1ccc(NCc2nc3ccccc3[nH]2)cc1 [6k, (E)-4-(((1H-benzo[d]imidazol-2-yl)methyl)amino)-N′-(2,4-dichlorobenzylidene)benzohydrazide] | 67.8 ± 3.8 | – | 44.8 ± 2.4 | – | 48.6 ± 2.7 | – | > 100 | > 20 | 294 | –
O=C(N/N=C/c1cc(F)ccc1F)c1ccc(NCc2nc3ccccc3[nH]2)cc1 [6l, (E)-4-(((1H-benzo[d]imidazol-2-yl)methyl)amino)-N′-(2,5-difluorobenzylidene)benzohydrazide] | 39.8 ± 2.2 | 1.95 | 20 ± 1.5 | 3.88 | 29.8 ± 2 | 2.60 | 77.6 ± 4.1 | > 20 | 160 | –
CN[C@@H]1C[C@H]2O[C@@](C)([C@@H]1OC)n1c3ccccc3c3c4c(c5c6ccccc6n2c5c31)C(=O)NC4 [Saurosporine, staurosporine, reference compound] | – | – | – | – | – | – | – | – | – | Protein Expression Caspase-3 ([13]; ELISA, control 99.904 ± 3.88, mean ± SD of triplicate): 541.162 ± 21.02 pg/mL; Protein Expression Caspase-3 (Folds) ([13]; relative to control (1)): 5.4 Folds; Protein Expression Bax ([14]; ELISA, control 71.075 ± 2.762, mean ± SD of triplicate): 386.743 ± 15.03 pg/mL; Protein Expression Bax (Folds) ([14]; relative to control (1)): 5.44 Folds; Protein Expression Bcl-2 [15]: 3.336 ± 0.11 pg/mL
CCN(CC)CCNC(=O)c1c(C)[nH]c(/C=C2\C(=O)Nc3ccc(F)cc32)c1C [Sunitinib, reference compound] | 17.9 ± 1.3 | – | 8.38 ± 0.5 | – | 24.1 ± 2 | – | 55.6 ± 3.3 | – | – | –
